Consider three molecules from patent US20070026079A1, “Intranasal administration of modulators of hypothalamic ATP-sensitive potassium channels” (priority 2005, published 2007).

The test system of assay [1] is hypothalamic KATP channels. Briefly: ICV infusion of insulin, KATP channel blocker (glibenclamide) or both with pancreatic-insulin clamp (1 mU/kg.min) in rats. It is filed as in vivo, Sprague-Dawley rats. The conditions noted are these: for Glucose: plasma; for rate of glucose infusion / glucose requirements: near basal circulating insulin levels. An excerpt: (§1) Animal preparation for the in vivo experiments. Rats. Eighty-nine 10-week-old male Sprague-Dawley rats (Charles River Breeding Laboratories, Wilmington, Mass.) were studied. Rats were housed in individual cages and subjected to a standard light-dark cycle. Three weeks prior to the in vivo studies, chronic catheters were implanted in the third cerebral ventricle (Obici et al., 2003; Liu et al., 1998) or intrahypothalamically (Morton et al., 2003) (IH) by stereotaxic surgery.
(§2) In vivo studies. For the studies in rats, the metabolic experiments were performed ˜3 weeks after stereotaxic surgery following complete recovery from the operation (FIG. 5). All solutions were diluted with artificial cerebral spinal fluid (aCSF). […] Euglycemic-hyperinsulinemic clamps in conscious, unrestrained, catheterized mice were performed for 90 min as previously described (Obici et al., 2003; Liu et al., 1998).
(§3) Hepatic alucose fluxes. Rate of hepatic glucose fluxes was determined as described. Barzilai et al., 1997).

Assay [2] deals with PEPCK. Put plainly: Hepatic expression of PEPCK by real-time PCR after central infusions. It counts as in vivo, Sprague-Dawley rats. An excerpt:
(§4) Gene expression. Gluconeogenic enzymes. Quantitative analysis of gene expression was done using RT-PCR. Total RNA was isolated with Trizol (Invitrogen) and single-strand cDNA was synthesized with a kit provided by Invitrogen. Real-time PCR reactions and the primers for G6 Pase and PEPCK were done as described (Pocai et al., in press). The copy number of each transcript was derived from a standard curve of cloned target templates. Expression of each transcript was normalized to copy number for 18s ribosomal protein.
A general note: Real-time PCR tracks product formation cycle by cycle.

Assay [3] has as its system hepatic glucose production. Briefly: Pancreatic-hyperinsulinemic clamp (systemic insulin 3 mU/kg.min) in SHAM and HV rats. It is filed as in vivo, Sprague-Dawley rats. The conditions noted are these: systemic hyperinsulinemia ~3-fold over basal. The method, then: Panel A is a schematic representation of the pancreatic-hyperinsulinemic clamp procedure. At t=120 an infusion of labeled glucose was initiated and maintained for the remaining 4 hours of the study and a pancreatic hyperinsulinemic clamp was initiated at t=240 min and lasted for 2 hours.
(§5) In vivo studies. For the studies in rats, the metabolic experiments were performed ˜3 weeks after stereotaxic surgery following complete recovery from the operation (FIG. 5). All solutions were diluted with artificial cerebral spinal fluid (aCSF). […] Pancreatic-insulin clamp studies were performed as previously described (Liu et al., 1998). Euglycemic-hyperinsulinemic clamps in conscious, unrestrained, catheterized mice were performed for 90 min as previously described (Obici et al., 2003; Liu et al., 1998).
(§6) Selective hepatic branch vagotomy. One week before the clamp procedure a subgroup of rats underwent selective hepatic vagotomy (HV) or sham operation (SHAM). Anatomical nerve transactions was verified in each rat at sacrifice by microscopic observation of the absence of vagal nerve fibers in between the two silk sutures that had been placed along the trunk at the time of transection (la Fleur et al., 2003).

In assay [4] the test system is KATP channels within the medial hypothalamus. Briefly: Intrahypothalamic (IH) infusion of diazoxide or insulin with pancreatic-insulin clamp in rats. It is filed as in vivo, Sprague-Dawley rats. Particulars: for rate of glucose infusion required to prevent hypoglycemia: IH infusion during pancreatic clamp, vs vehicle; for blood glucose levels / glucose production (GP): IH infusion; for blood glucose levels: bilateral, medial hypothalamus, fifteen-fold lower dose than ICV; for glucose production (GP): basal circulating insulin. The source says:
Animal preparation for the in vivo experiments. Rats. Eighty-nine 10-week-old male Sprague-Dawley rats (Charles River Breeding Laboratories, Wilmington, Mass.) were studied. Rats were housed in individual cages and subjected to a standard light-dark cycle. Three weeks prior to the in vivo studies, chronic catheters were implanted in the third cerebral ventricle (Obici et al., 2003; Liu et al., 1998) or intrahypothalamically (Morton et al., 2003) (IH) by stereotaxic surgery. One week before the pancreatic-insulin clamp protocols, rats received additional catheters in the right internal jugular and left carotid artery (FIG. 5) (Obici et al., 2003; Liu et al., 1998). In vivo studies. For the studies in rats, the metabolic experiments were performed ˜3 weeks after stereotaxic surgery following complete recovery from the operation (FIG. 5). All solutions were diluted with artificial cerebral spinal fluid (aCSF). […] Pancreatic-insulin clamp studies were performed as previously described (Liu et al., 1998). Euglycemic-hyperinsulinemic clamps in conscious, unrestrained, catheterized […] were performed for 90 min as previously described (Obici et al., 2003; Liu et al., 1998).

For assay [5], the system named is hypothalamic KATP channels. Put plainly: Central insulin or diazoxide in rats on a high fat diet for three days (hepatic insulin resistance). The conditions noted are these: basal plasma insulin (20 μU/ml). It counts as in vivo. How it is done: Additional-experiments were also performed in rats maintained on a high fat diet regimen for three days.
Assay [6] relates to G6 Pase. Briefly: Hepatic expression of G6 Pase by real-time PCR after central infusions. It is filed as in vivo, Sprague-Dawley rats.
Text: as §4

Assay [7] addresses T1, hypothalamic insulin receptors (Rattus norvegicus, UniProt P15127).
T1 construct: Paired groups of SHAM and HV rats received an ICV infusion of either insulin or vehicle; from tissue; host or cells: brain/hypothalamus of living Sprague-Dawley rats (sham, hepatic vagotomy or vagal deafferentation)
Put plainly: ICV insulin with pancreatic-insulin clamp in rats with hepatic vagotomy (HV), sham operation or vagal deafferentation. Particulars: for Body wt.: ICV infusion; for 14C-PEP: liver. It counts as in vivo, Sprague-Dawley rats.
Text: as §1, §2, §6
Selective vagal deafferentation. Nerve transection was performed as previously described, according to the methods of Norgren and Smith (Norgren & Smith, 1998).
as §3

In assay [8] the test system is central KATP channels. Briefly: ICV infusion of diazoxide with pancreatic-insulin clamp (1 mU/kg.min) in conscious rats. It is filed as in vivo, Sprague-Dawley rats.
Text: as §1, with “surgery. One week before the pancreatic-insulin clamp protocols, rats received additional catheters in the right internal jugular and left carotid artery (FIG. 5) (Obici et al., 2003; Liu et al., 1998).” for “surgery.”
as §5, §3

The mark [9] stands for this setting: Basal, before the clamp, ICV infusion.
Where [10] appears, read: ICV infusion, liver harvested at completion of infusions.

T1 sequence (P15127 27-759 limits assumed): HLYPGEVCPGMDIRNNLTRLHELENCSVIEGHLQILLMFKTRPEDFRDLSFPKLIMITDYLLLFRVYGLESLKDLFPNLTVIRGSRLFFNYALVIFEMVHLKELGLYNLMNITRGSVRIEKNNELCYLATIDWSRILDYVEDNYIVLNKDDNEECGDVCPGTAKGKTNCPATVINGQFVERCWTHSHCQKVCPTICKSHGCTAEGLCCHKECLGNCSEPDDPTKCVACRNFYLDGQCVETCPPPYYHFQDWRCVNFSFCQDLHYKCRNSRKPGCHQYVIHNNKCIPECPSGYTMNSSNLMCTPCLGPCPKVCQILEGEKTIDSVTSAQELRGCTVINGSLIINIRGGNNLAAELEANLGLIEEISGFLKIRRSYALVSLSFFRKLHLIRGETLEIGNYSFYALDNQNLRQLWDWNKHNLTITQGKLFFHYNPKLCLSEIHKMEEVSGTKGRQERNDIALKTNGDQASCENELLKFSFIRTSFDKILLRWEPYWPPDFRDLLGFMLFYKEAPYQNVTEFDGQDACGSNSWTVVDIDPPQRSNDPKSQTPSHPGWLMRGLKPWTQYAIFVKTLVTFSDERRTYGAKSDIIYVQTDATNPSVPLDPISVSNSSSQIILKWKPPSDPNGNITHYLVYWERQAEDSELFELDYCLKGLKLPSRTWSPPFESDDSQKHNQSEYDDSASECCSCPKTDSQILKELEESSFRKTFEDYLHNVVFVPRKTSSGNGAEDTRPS
T1 sequence (P15127 764-1383 partner limits assumed): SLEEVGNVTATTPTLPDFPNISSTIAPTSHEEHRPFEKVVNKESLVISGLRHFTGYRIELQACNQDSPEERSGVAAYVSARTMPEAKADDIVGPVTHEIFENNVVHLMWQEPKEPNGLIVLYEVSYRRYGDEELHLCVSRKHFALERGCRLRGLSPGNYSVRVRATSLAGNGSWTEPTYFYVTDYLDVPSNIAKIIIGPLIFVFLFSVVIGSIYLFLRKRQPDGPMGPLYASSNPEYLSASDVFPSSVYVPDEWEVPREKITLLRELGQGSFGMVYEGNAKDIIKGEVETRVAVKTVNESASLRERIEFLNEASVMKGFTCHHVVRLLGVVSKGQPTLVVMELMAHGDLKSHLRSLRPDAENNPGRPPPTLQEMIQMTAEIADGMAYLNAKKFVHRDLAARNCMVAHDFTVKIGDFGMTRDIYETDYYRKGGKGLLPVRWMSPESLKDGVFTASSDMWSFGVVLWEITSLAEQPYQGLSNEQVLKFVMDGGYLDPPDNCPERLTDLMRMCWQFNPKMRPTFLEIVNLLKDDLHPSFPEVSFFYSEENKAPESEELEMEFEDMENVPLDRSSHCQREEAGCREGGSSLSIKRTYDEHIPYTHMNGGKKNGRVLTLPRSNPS

Take `COc1ccc(Cl)cc1C(=O)NCCc1ccc(S(=O)(=O)NC(=O)NC2CCCCC2)cc1` [glibenclamide, 5-Chloro-N-[2-[4-(3-cyclohexylureidosulfonyl)phenyl]ethyl]-2-methoxybenzamide, reference compound]: the Glucose in assay [1] (setting [9]) is recorded as 8.2 ± 0.5 mM; in assay [1] (Clamp steady state, ICV infusion), 8.2 ± 0.9 mM. Also, the “rate of glucose infusion / glucose requirements” value in assay [1] (ICV) is recorded as “did not modify the rate of glucose infusion”. The “glucose production (GP)” value in assay [1] (ICV, pancreatic clamp) is on record as “did not per se affect GP”. The “% Indirect” value in assay [1] (indirect pathway (gluconeogenesis), ICV infusion, Table 7) is given as 32.4 ± 3.0%.
In the case of insulin, the “liver PEPCK mRNA levels” value is “marked KATP channels dependent decreases” in assay [2] (setting [10]) and “marked decrease” in assay [2] (SHAM, ICV). Also, the Glucose in assay [1] (setting [9]) came to 7.8 ± 0.3 mM; in assay [7] (HV, Basal, plasma), 7.9 ± 0.5 mM; in assay [7] (HV, Clamp steady state, plasma), 8.0 ± 0.6 mM; in assay [7] (Sham, Basal, plasma), 7.9 ± 0.3 mM. The “flux through G6 Pase” value is recorded as “markedly decreased the flux through G6 Pase” in assay [1] (ICV) and “markedly decreased the flux through G6 Pase” in assay [7] (SHAM, ICV). In addition, the gluconeogenesis result in assay [1] (ICV) was “marked inhibition of gluconeogenesis”; in assay [7] (SHAM, ICV) it was “marked inhibition of gluconeogenesis”. Besides, the rate of glycogenolysis entry in assay [1] (ICV) was “not significantly decreased”. In addition, the blood glucose levels entry in assay [1] (ICV (third cerebral ventricle)) is listed as “lowers blood glucose levels”; in assay [4], “reproduced the potent effects of ICV insulin or diazoxide”. The “decrease in glucose production (GP)” value in assay [1] (ICV, basal and equal insulin levels) is 52±8%; in assay [7] (HV, ICV, basal and equal insulin levels), “not in HV rats”. The “rate of glucose infusion / glucose requirements” value in assay [1] (ICV) is recorded as “glucose infusion was required to prevent hypoglycemia”. The “suppression of GP” value in assay [3] (HV) is listed as 38±11%; in assay [3] (SHAM), 80±8%. The “rate of glucose infusion required to prevent hypoglycemia” value in assay [4] is on record as “significant increases”. The “glucose production (GP)” value in assay [4] was “reproduced the potent effects of ICV insulin or diazoxide”. In addition, the “inhibition of glucose production” value in assay [5] (central administration) is “failed to significantly inhibit glucose production”. The “liver G6 Pase mRNA levels” value in assay [6] (setting [10]) is “marked KATP channels dependent decreases”; in assay [6] (SHAM, ICV), “marked decrease”. Moreover, the Body wt. in assay [7] (HV, Basal) was 295 ± 4 g; in assay [7] (Sham, Basal) it was 310 ± 5 g. The FFA in assay [7] (HV, Basal, plasma) is recorded as 0.5 ± 0.2 mM; in assay [7] (HV, Clamp steady state, plasma) it was 0.5 ± 0.3 mM; in assay [7] (Sham, Basal, plasma) it was 0.5 ± 0.3 mM; in assay [7] (Sham, Clamp steady state, plasma) it was 0.4 ± 0.1 mM. In assay [7] (HV, Clamp steady state, plasma), this molecule came in with an Insulin of 0.9 ± 0.3 ng/mL. The hepatic glucose fluxes entry in assay [7] (HV, ICV) is recorded as “failed to affect hepatic glucose fluxes”. Further, the “3H-Glucose Plasma SA” value is 52.4 ± 3.5 dpm/nmol in assay [7] (HV, Table 8) and 43.1 ± 1.9 dpm/nmol in assay [7] (SHAM, Table 8). In addition, the “% Indirect” value in assay [7] (HV, indirect pathway (gluconeogenesis), Table 8) is listed as 34.4 ± 9.7%. Further, the 14C-PEP in assay [7] (HV, Table 8) is 5.5 ± 1.4 dpm/nmol; in assay [7] (SHAM, Table 8) it was 10.9 ± 0.6 dpm/nmol. Further, the “rate of glucose uptake” value in assay [7] (ICV, either SHAM or HV rats) is “not significantly affected”. Further, the “glucose infusion required to prevent hypoglycemia” value in assay [7] (SHAM, ICV, ~basal circulating insulin) is on record as “glucose infusion was required to prevent hypoglycemia”. The “3H-UDP-glucose Liver SA” value in assay [7] (SHAM, Table 8) was determined as 5.5 ± 0.5 dpm/nmol. Further, the “Direct (%)” value in assay [7] (SHAM, direct pathway, Table 8) worked out at 12.1 ± 0.71%. For the same molecule, the “ability to lower blood glucose levels and to suppress GP” value in assay [7] (rats with selective vagal deafferentation, ICV) is given as “did not alter”.
On to `CC1=NS(=O)(=O)c2cc(Cl)ccc2N1` [diazoxide], for which the “liver PEPCK mRNA levels” value in assay [2] (setting [10]) is given as “markedly decreased”. The same molecule displayed a Glucose in assay [8] (Basal, before the clamp, plasma, ICV infusion) of 7.9 ± 0.4 mM. Further, in assay [8] (ICV), the gluconeogenesis entry is recorded as “marked inhibition of gluconeogenesis”, the glucose cycling entry was “significantly reduced glucose cycling” and the rate of glycogenolysis result is “not significantly decreased”. Moreover, the blood glucose levels entry in assay [8] (ICV (third cerebral ventricle), conscious rats) is given as “lowered blood glucose levels”. Further, the “glucose infusion required to prevent hypoglycemia” value in assay [8] (ICV, basal circulating insulin levels) is listed as “glucose infusion was required to prevent hypoglycemia”. Also, the “decrease in glucose production (GP)” value in assay [8] (ICV, basal insulin levels (~20 μU/ml)) amounted to 45±4%. Besides, the “flux through G6 Pase” value in assay [8] (ICV, in vivo) is “decreased the flux through G6 Pase”. Also, in assay [8] (ICV, pancreatic-insulin clamp), the “rate of glucose uptake” value is “not significantly affected”. The “% Indirect” value in assay [8] (indirect pathway (gluconeogenesis), ICV infusion, Table 6) is 9.7 ± 4.1 %. For the same molecule, in assay [4], the “rate of glucose infusion required to prevent hypoglycemia” value is given as “significant increases”, the blood glucose levels result is “lowered blood glucose levels” and the “glucose production (GP)” value is listed as “marked suppression of GP”. For the same molecule, the “inhibition of glucose production” value in assay [5] (ICV or intrahypothalamic infusion) is about 45%. In assay [6] (setting [10]), the “liver G6 Pase mRNA levels” value is listed as “markedly decreased”.
